The experiment deals with normal human photoreceptors cells. The experiment in a line: In vitro study of photoreceptor membranes exposed to oxido-reductive stress. Conditions: exposure to strong electron donor substances; result in words. It counts as cell-based. The source says: The mitochondrial membranes are more basophilic, and they contain more unsaturated lipids than the disc membranes of the outer segments.

For chlorpromazines, the disc membranes result is “disrupted the disc membranes in dose dependent manner” and the “structure of mitochondrial membranes” value was “slighly altered”.

The values above are taken from patent US6417233B1, “Ubiguinone-containing composition suitable for promoting enhanced intramitochondrial transportation of ubiguinones and methods of using same” (Sigma-Tau HealthScience S.p.A., priority 1998, dated 2002).
